Results published in ChEMBL document CHEMBL1136356, “Rational design of antimicrobial agents: antifungal activity of alk(en)yl dihydroxybenzoates and dihydroxyphenyl alkanoates” (Bioorg Med Chem Lett, 2003).
≈ marks a conversion by molar mass, not a printed value.

Tests used:
[1] = test system: Saccharomyces cerevisiae; assay: microbe, parasite or virus in culture; settings: ATCC 7754
Description: (§1) Antifungal activity against Saccharomyces cerevisiae ATCC 7754

[2] = test system: Saccharomyces cerevisiae; assay: microbe, parasite or virus in culture; settings: ATCC 7754; remark: listed apart in the source
Description: as §1

[3] = physchem; settings: octanol/water
Description: Partition coefficient (logP)

| SMILES | MFC [1] [µg/mL] | MIC [2] [µg/mL] | logP [3] |
| --- | --- | --- | --- |
| CC(C)=CCC/C(C)=C/COC(=O)c1ccc(O)c(O)c1 | 12.5 (≈ 43.1 µM) | 12.5 (≈ 43.1 µM) | 3.84 |
| CCCCCCCCCCCOC(=O)c1cc(O)cc(O)c1O | 25 (≈ 77.1 µM) | 25 (≈ 77.1 µM) | 4.83 |
| CCCCCCCOC(=O)c1cc(O)cc(O)c1O | 200 (≈ 745 µM) | 200 (≈ 745 µM) | 3.16 |
| CCCOC(=O)c1ccc(O)c(O)c1 | > 400 | > 400 | 1.9 |
| CCCCCC/C=C/COC(=O)c1ccc(O)c(O)c1 | 6.25 (≈ 22.5 µM) | 6.25 (≈ 22.5 µM) | 4.22 |
| CCCCCCCC(C)OC(=O)c1ccc(O)c(O)c1 (configuration not stated) | 25 (≈ 89.2 µM) | 25 (≈ 89.2 µM) | 4.3 |
| CC(C)=CCC/C(C)=C\COC(=O)c1ccc(O)c(O)c1 | 25 (≈ 86.1 µM) | 12.5 (≈ 43.1 µM) | 3.84 |
| CCCCCCCCOC(=O)c1cc(O)cc(O)c1O | 100 (≈ 354 µM) | 50 (≈ 177 µM) | 3.58 |
| CCCCCOC(=O)c1ccc(O)c(O)c1 | 100 (≈ 446 µM) | 100 (≈ 446 µM) | 2.73 |
| CCCCCCCCCCOC(=O)c1cc(O)cc(O)c1O | 25 (≈ 80.5 µM) | 12.5 (≈ 40.3 µM) | 4.42 |
| CCCCCCOC(=O)c1ccc(O)c(O)c1 [HEXYL 3,4-DIHYDROXYBENZOATE] | 25 (≈ 105 µM) | 25 (≈ 105 µM) | 3.15 |
| CCCCCCCCCCCOC(=O)c1ccc(O)c(O)c1 | > 400 | > 400 | 5.24 |
| CC1CCC(C(C)C)C(OC(=O)c2ccc(O)c(O)c2)C1 (configuration not stated) | 12.5 (≈ 42.8 µM) | 12.5 (≈ 42.8 µM) | 4.1 |
| CCCCOC(=O)c1ccc(O)c(O)c1 | 400 (≈ 1900 µM) | 200 (≈ 951 µM) | 2.32 |
| CCCCCCCCCOC(=O)c1cc(O)cc(O)c1O | 25 (≈ 84.4 µM) | 25 (≈ 84.4 µM) | 4 |
| CCCCCCC(CC)OC(=O)c1ccc(O)c(O)c1 (configuration not stated) | 12.5 (≈ 44.6 µM) | 12.5 (≈ 44.6 µM) | 4.37 |
| CC1(C)C2CCC1(C)C(OC(=O)c1ccc(O)c(O)c1)C2 (configuration not stated) | 50 (≈ 172 µM) | 50 (≈ 172 µM) | 3.78 |
| Clc1ccc(COC(Cn2ccnc2)c2ccc(Cl)cc2Cl)c(Cl)c1 (configuration not stated) [MICONAZOLE] | 50 (≈ 120 µM) | 6.25 (≈ 15 µM) | – |
| CCCCCC/C=C\COC(=O)c1ccc(O)c(O)c1 | 6.25 (≈ 22.5 µM) | 6.25 (≈ 22.5 µM) | 4.22 |
| CCCCCCCCCCCCCOC(=O)c1cc(O)cc(O)c1O | > 400 | > 400 | 5.67 |
| CCCCCCCCCCCCOC(=O)c1cc(O)cc(O)c1O | > 400 | > 400 | 5.25 |
| CCCCCCCOC(=O)c1ccc(O)c(O)c1 [HEPTYL 3,4-DIHYDROXYBENZOATE] | 12.5 (≈ 49.5 µM) | 12.5 (≈ 49.5 µM) | 3.57 |
| O=C(OCC1CCCCC1)c1ccc(O)c(O)c1 | 50 (≈ 200 µM) | 50 (≈ 200 µM) | 3.05 |
| CCCCCCCCOC(=O)c1ccc(O)c(O)c1 [OCTYL 3,4-DIHYDROXYBENZOATE] | 12.5 (≈ 46.9 µM) | 6.25 (≈ 23.5 µM) | 3.99 |
| O=C(OC1CCC2CCCCC2C1)c1ccc(O)c(O)c1 (configuration not stated) | 25 (≈ 86.1 µM) | 25 (≈ 86.1 µM) | 3.62 |
| CCCCCCCCCOC(=O)c1ccc(O)c(O)c1 [NONYL 3,4-DIHYDROXYBENZOATE] | 1.25 (≈ 4.46 µM) | 6.25 (≈ 22.3 µM) | 4.4 |
